Results from ChEMBL document CHEMBL5543168, “Discovery of Urea Derivatives of Celastrol as Selective Peroxiredoxin 1 Inhibitors against Colorectal Cancer Cells” (J Med Chem, 2024).
Activity calls are given as the source filed them. The rule behind the calls is not given here.

Experiments:
Peroxiredoxin-6 = target: T1, Peroxiredoxin-6 (Homo sapiens, UniProt P30041); assay: Inhibition of recombinant PRDX6 (unknown origin) using H2O2 as substrate preincubated for 0.5 hrs followed by substrate addition by TRX-TrxR-NADPH coupling assay
T1 sequence (P30041 whole entry): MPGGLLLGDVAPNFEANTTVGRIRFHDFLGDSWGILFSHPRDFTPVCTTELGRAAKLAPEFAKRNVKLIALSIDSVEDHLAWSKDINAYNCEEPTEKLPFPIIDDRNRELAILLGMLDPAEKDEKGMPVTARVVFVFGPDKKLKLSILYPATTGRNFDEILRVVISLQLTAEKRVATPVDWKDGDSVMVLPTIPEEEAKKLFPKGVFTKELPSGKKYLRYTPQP

SW-620 [1] = assay: Induction of cell cycle arrest at G2 phase in human SW620 cells at 1 uM incubated for 24 hrs by PI staining based flow cytometry (reference value: 6.77 %); type: functional
[2] = Antiproliferative activity against HEK293T cells; type: toxicity, cell-based, HEK-293T; details: human
[3] = Acute toxicity in C57BL/[…] 6J mouse assessed as pathological change in kidney at 20 mg/kg, ip measured for 2 weeks by H and E staining based analysis; type: organism-based; details: in vivo, 336 h
[4] = Volume of distribution in mouse at 2 mg/kg, iv measured for 24 hrs by LC-MS/MS analysis; type: ADME, organism-based; details: in vivo
SW-620 [5] = assay: Antitumor activity against human SW620 cells xenografted in BALB/c nude mouse assessed as morphological change in vacuoles in tumor cells at 2 mg/kg, ip qd for 16 days by H and E staining based analysis; type: functional, organism-based; details: time 16.0 day
[6] = Antiproliferative activity against mouse […] cells; type: toxicity, cell-based
SW-620 [7] = assay: Induction of apoptosis in human SW620 cells assessed as increase in Cyt C level incubated for 48 hrs by Western blot analysis; type: functional, cell-based; details: dose 0.25-2 µM
[8] = Toxicity in BALB/c nude mouse xenografted with human SW620 cells assessed as body weight loss at 2 mg/kg, ip qd for 16 days; type: organism-based, SW-620; details: in vivo, 384 h, time 16 day
SW-620 [9] = assay: Induction of apoptosis in human SW620 cells assessed as total apoptotic cells at 2 uM incubated for 48 hrs by Annexin V-FITC/PI staining based flow cytometry relative to control; type: functional
SW-620 [10] = assay: Induction of cell cycle arrest at G2 phase in human SW620 cells at 0.5 uM incubated for 24 hrs by PI staining based flow cytometry (reference value: 6.77 %); type: functional
SW-620 [11] = assay: Induction of mitochondrial membrane potential depolarization in human SW620 cells assessed as change in morphological characteristics at 0.5 to 2 uM incubated for 48 hrs by bright-field microscopy; type: functional, cell-based; details: dose 0.5-2 µM
SW-620 [12] = assay: Induction of cell cycle arrest at S phase in human SW620 cells at 2 uM incubated for 24 hrs by PI staining based flow cytometry (reference value: 59.9 %); type: functional
[13] = Selectivity ratio of IC50 for mouse […] cells to IC50 for human SW620 cells; type: functional
[14] = AUC (0 to t) in mouse at 2 mg/kg, iv measured for 24 hrs by LC-MS/MS analysis; type: ADME, organism-based; details: in vivo
[15] = Clearance in mouse at 2 mg/kg, iv measured for 24 hrs by LC-MS/MS analysis; type: ADME, organism-based; details: in vivo
[16] = target: T2, Peroxiredoxin-5, mitochondrial (Homo sapiens, UniProt P30044); assay: Inhibition of recombinant PRDX5 (unknown origin) using H2O2 as substrate preincubated for 0.5 hrs followed by substrate addition by TRX-TrxR-NADPH coupling assay
T2 sequence (P30044 whole entry): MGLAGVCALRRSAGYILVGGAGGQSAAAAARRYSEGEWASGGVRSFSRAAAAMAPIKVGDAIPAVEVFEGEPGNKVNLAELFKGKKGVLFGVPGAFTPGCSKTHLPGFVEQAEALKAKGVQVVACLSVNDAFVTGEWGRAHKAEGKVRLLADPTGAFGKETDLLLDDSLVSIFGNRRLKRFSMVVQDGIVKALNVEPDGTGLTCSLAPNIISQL

SW-620 [17] = assay: Induction of cell cycle arrest at S phase in human SW620 cells at 0.5 uM incubated for 24 hrs by PI staining based flow cytometry (reference value: 59.9 %); type: functional
[18] = Selectivity ratio of IC50 for mouse […] cells to IC50 for human HCT-116 cells; type: functional
SW-620 [19] = assay: Antitumor activity against human SW620 cells xenografted in BALB/c nude mouse assessed as decrease in tumor weight at 2 mg/kg, ip qd for 16 days; type: functional, organism-based; details: time 16.0 day
SW-620 [20] = assay: Induction of mitochondrial membrane potential depolarization in human SW620 cells assessed as increase in green fluorescence incubated for 48 hrs by JC1-staining based CLSM analysis; type: functional, cell-based; details: dose 0.5-2 µM
SW-620 [21] = assay: Induction of mitochondrial membrane potential depolarization in human SW620 cells assessed as increase in JC-1-stained green cells at 0.5 to 2 uM incubated for 48 hrs by flow cytometry; type: functional, cell-based; details: dose 0.5-2 µM
SW-620 [22] = assay: Induction of cell cycle arrest at S phase in human SW620 cells at 1 uM incubated for 24 hrs by PI staining based flow cytometry (reference value: 59.9 %); type: functional
[23] = Selectivity ratio of IC50 for human LX2 cells to IC50 for human SW620 cells; type: functional
SW-620 [24] = assay: Induction of apoptosis in human SW620 cells assessed as total apoptotic cells at 1 uM incubated for 48 hrs by Annexin V-FITC/PI staining based flow cytometry relative to control; type: functional
[25] = Acute toxicity in C57BL/[…] 6J mouse assessed as pathological change in spleen at 20 mg/kg, ip measured for 2 weeks by H and E staining based analysis; type: organism-based; details: in vivo, 336 h
[26] = AUC (0 to infinity) in mouse at 2 mg/kg, iv measured for 24 hrs by LC-MS/MS analysis; type: ADME, organism-based; details: in vivo
[27] = Selectivity ratio of IC50 for HEK293T cells to IC50 for human HCT-116 cells; type: functional
SW-620 [28] = assay: Induction of mitochondrial membrane potential depolarization in human SW620 cells assessed as decrease in JC-1-stained red cells incubated for 48 hrs by flow cytometry; type: functional, cell-based; details: dose 0.5-2 µM
SW-620 [29] = assay: Induction of cell cycle arrest at G1 phase in human SW620 cells at 2 uM incubated for 24 hrs by PI staining based flow cytometry (reference value: 32.4 %); type: functional
SW-620 [30] = assay: Induction of mitochondrial membrane potential depolarization in human SW620 cells assessed as JC-1-stained green cells upto 2 uM incubated for 48 hrs by flow cytometry (reference value: 8.9 %); type: functional; details: up to 2 µM
[31] = Half life in mouse at 2 mg/kg, iv measured for 24 hrs by LC-MS/MS analysis; type: ADME, organism-based; details: in vivo
[32] = Acute toxicity in C57BL/[…] 6J mouse assessed as animal death at 20 mg/kg, ip measured for 2 weeks; type: organism-based; details: in vivo, 336 h
[33] = Selectivity ratio of IC50 for human LX2 cells to IC50 for human HCT-116 cells; type: functional
[34] = Acute toxicity in C57BL/[…] 6J mouse assessed as body weight loss at 20 mg/kg, ip measured for 2 weeks; type: organism-based; details: in vivo, 336 h

COC(=O)C1(NC(=O)N[C@]2(C)CC[C@]3(C)CC[C@]4(C)C5=CC=C6C(=CC(=O)C(O)=C6C)[C@]5(C)CC[C@@]4(C)[C@@H]3C2)CCC1
IC50 (Peroxiredoxin-6): > 50000 nM | Activity (SW-620 [1]): 14.6% | IC50 [2]: ~1000 nM | Activity [3]: Non-Toxic | Vd [4]: 60.7 L/kg | Activity (SW-620 [5]): Active | IC50 [6]: ~1000 nM | Activity (SW-620 [7]): Dose-Dependent Effect | Activity [8]: Non-Toxic | Activity (SW-620 [9]): 54.7% | Activity (SW-620 [10]): 7.05% | Activity (SW-620 [11]): Active | Activity (SW-620 [12]): 50.1% | Selectivity ratio [13]: 2 | AUC(0-t) at 24 h [14]: 364 ng·h/mL | clearance [15]: 83.1 mL/min/kg | IC50 [16]: > 50000 nM | Activity (SW-620 [17]): 57.3% | Selectivity ratio [18]: 2 | Activity (SW-620 [19]): Active | Activity (SW-620 [20]): Dose-Dependent Effect | Activity (SW-620 [21]): Active | Activity (SW-620 [22]): 42.7% | Selectivity ratio [23]: 2 | Activity (SW-620 [24]): 19% | Activity [25]: Non-Toxic | AUC(0-inf) [26]: 403 ng·h/mL | Selectivity ratio [27]: 2 | Activity (SW-620 [28]): Dose-Dependent Effect | Activity (SW-620 [29]): 29.2% | Activity (SW-620 [30]): 54.6% | half-life [31]: 8.46 h | Activity [32]: Non-Toxic | Selectivity ratio [33]: 2 | Activity [34]: Non-Toxic
